Reference: US20260325655A1, “DECREASING THE INTRINSICALLY DISORDERED PROTEIN ALPHA-SYNUCLEIN’S LEVELS BY TARGETING ITS STRUCTURED MRNA WITH A RIBONUCLEASE TARGETING CHIMERA” (University of Florida Research Foundation, Incorporated, priority 2023, published 2026)

Experiments:
[1] = system: fully base paired RNA; assay: MST binding to fully base paired control RNA; conditions: microscale thermophoresis
Experimental: Binding Affinity Measurements: Microscale Thermophoresis (MST). Binding affinity measurements were performed on a Monolith NT.115 MST system (NanoTemper Technologies) with Cy5-labeled oligonucleotides. Briefly, Cy5-labeled RNA (5 nM) was prepared in 1× Folding Buffer and folded by heating at 60° C. for 5 min and then slowly cooling to room temperature. After cooling, Tween-20 was added to a final concentration of 0.1% (v/v). Compound solutions were prepared separately in 30 μL of 1× Assay Buffer at a final concentration of 5 μM (1% (v/v) DMSO), followed by 1:1 serial dilutions in 1× Assay Buffer. RNA and compound solutions were then mixed 1:1 by volume.
Samples were incubated for 20 min at room temperature and then loaded into premium capillaries (NanoTemper Technologies, Cat #MO-K025). The following parameters were used for MST measurement: 5-20% LED power (adjusted to keep fluorescence intensity between 8000 and 18000), 80% MST power, Laser-On time=30 s, and Laser-Off time=5 s. The resulting data were analyzed by calculating the change in thermophoresis as a function of compound concentration and fitted by Equation (3) in MST analysis software (NanoTemper Technologies) to yield the dissociation constant (Kd):
where F is the concentration of fluorescently labeled RNA; unbound and bound refer to the thermophoresis signal at completely unbound and bound state of RNA, respectively; c is the concentration of the compound; f (c) is the thermophoresis signal at compound concentration of c; Kd is the dissociation constant.

[2] = system: SH-SY5Y cells; assay: proteome-wide analysis in SH-SY5Y cells; assay type: cell-based, human; conditions: for number of proteins downregulated / number of proteins upregulated / protein expression of seven genes enriched by Syn-CLIP (global proteomics) / number of proteins affected / percent of proteins affected: 2 μM; for number of proteins affected: of 3,436 (Syn-RiboTAC) or 2,813 (Synucleozid-2.0) proteins detected; for percent of proteins affected: of proteins detected
Experimental: Treatment of SH-SY5Y cells with Syn-RiboTAC for proteome-wide studies. SH-SY5Y cells were seeded in 6-well plates (~60% confluency) and treated with vehicle (0.1% (v/v) DMSO) or Syn-RiboTAC as described above. After 48 h, the cells were gently washed twice with 1× DPBS, harvested by scraping, and resuspended in 1× DPBS. They were then lysed by sonication. Protein concentrations were determined by using BCA Protein Assay Kit (Pierce Biotechnology). Reduction of […]-synuclein protein levels by Syn-RiboTAC were confirmed by Western blotting as described above. Protein samples were then denatured in 50 mM NH4HCO3, pH 8, containing 6 M urea and then reduced with 10 mM TCEP (tris(2-carboxyethyl)phosphine hydrochloride) for 30 min. The proteins were then alkylated with 25 mM iodoacetamide for 30 min in dark. Samples were diluted to 2 M urea containing 50 mM NH4HCO3, pH 8, and digested with trypsin (Thermo Scientific, 1.5 μL of 0.5 μg/μL) containing 1 mM CaCl2) (100× stock in water) at 37° C. for 12 h. Samples were acidified by adding acetic acid to a final concentration of 5% (v/v), desalted by using a self-packed C18 spin column, and dried. Samples obtained were analyzed by LC-MS/MS(as described below), and the MS data were processed with MaxQuant (as described below).
LC-MS/MS analysis and MaxQuant analysis. Peptides obtained above were resuspended in water containing 0.1% (v/v) formic acid and analyzed by using EASY-nLC 1200 nano-UHPLC coupled to Q Exactive HF-X Quadrupole-Orbitrap mass spectrometer (Thermo Scientific). Parameters for the chromatography column and elution methods were the same as previously described.^4 MS data were analyzed by using MaxQuant 14 (V1.6.1.0) and then searched against the human proteome (Uniprot) and a common list of contaminants (included in MaxQuant). The false discovery rate (FDR) for proteins, peptides and sites identification was set at 1%. Parameters were the same as described previously.^4

[3] = system: SNCA mRNA; assay: SNCA mRNA in iPSC-induced dopaminergic neurons; assay type: cell-based, human
Experimental: RNA extraction and reverse transcription-quantitative polymerase chain reaction (RT-qPCR). Total RNA was extracted from cells using a Quick-RNA MiniPrep Kit (Zymo Research) per the manufacturer's protocol including DNase treatment. For each sample, 200 ng of RNA was reverse transcribed into cDNA by using a qScript cDNA Synthesis Kit (QuantaBio) according to the manufacturer's instructions. To assess the relative mRNA levels, RT-qPCR was performed in triplicate using SYBR Green PCR mater mix (Applied Biosystems) with a Quant Studio 5 Real-Time PCR system. The relative levels of mRNA were calculated by using the ΔΔCt method as previously described.^8
Dopamine neuron induction. For dopamine neuronal induction,^15,16 the dual-SMAD inhibition method^17 was used for floor plate (FP)-based midbrain dopamine (DA) neuron induction with modifications. Prior to differentiation, Matrigel matrix (BD) was thawed at 4° C. overnight or on ice until it is dissolved. Matrigel coated 6-well plates were prepared according to manufacturer's instructions and incubated at 37° C. for at least 1 h before use. iPSCs were dissociated with Accutase (STEMCELL Technologies) and plated (3.5×10^5-4×10^5 cells per cm^2) into a new Matrigel coated plate and grown in mTeSR medium (STEMCELL Technologies) with StemBeads FGF2 (StemCultures) and ROCK inhibitor Y27632 (5 μM, Tocris). […]

CCOC(=O)C1=C(Nc2ccccc2)S/C(=C\c2ccc(OCCOCCOCCOCCNC(=O)CCCOc3ccc(-n4c(SCC(=O)Nc5ccc6cn[nH]c6c5)nnc4-c4ccncc4)cc3)c(O)c2)C1=O [Syn-RiboTAC]
binding towards the fully base paired RNA [1]: no saturable binding | enhancement in selectivity on the proteome vs Synucleozid 1.0 [2]: ~ 16 -fold | number of proteins downregulated [2]: 114 | number of proteins upregulated [2]: 80 | protein expression of seven genes enriched by Syn-CLIP (global proteomics) [2]: not significantly altered | number of proteins affected [2]: 194 | percent of proteins affected [2]: 0.56% | number of changed proteins that also showed the corresponding change at the transcript level ([2]; of 194 changed proteins): 86 | percent of changed proteins with corresponding transcript change ([2]; of 194 changed proteins): 44% | decrease of SNCA transcript levels in dopaminergic neurons [3]: ~ 50%

O=C(CSc1nnc(-c2ccncc2)n1-c1ccc(Br)cc1)Nc1ccc2cn[nH]c2c1 [Synucleozid-2.0]
binding towards the fully base paired RNA [1]: no saturable binding | number of proteins downregulated [2]: 55 | number of proteins upregulated [2]: 95 | protein expression of seven genes enriched by Syn-CLIP (global proteomics) [2]: not significantly altered | number of proteins affected [2]: 150 | percent of proteins affected [2]: 0.53% | effect on SNCA mRNA levels in dopaminergic neurons (in words) [3]: no effect
